These are literature values, as cited in patent EP2103596A1, “Process for the preparation of N-(phenylethyl) anilines salts and solvates thereof useful as serotonin 5-HT6 antagonists” (priority 2008, dated 2009).

Like-named read-outs stand apart in the source and are kept apart here.

Series [1] deals with more than 70 tested receptors. The settings on record: selectivity versus more than 70 tested receptors.
For series [2] the following is noted: mice, sub-chronic dosing (10 and 30 mg/kg qd, i.p.).
The target of series [3] is CYP2D6 (Homo sapiens, UniProt P10635).
Chain of CYP2D6 (P10635 whole entry): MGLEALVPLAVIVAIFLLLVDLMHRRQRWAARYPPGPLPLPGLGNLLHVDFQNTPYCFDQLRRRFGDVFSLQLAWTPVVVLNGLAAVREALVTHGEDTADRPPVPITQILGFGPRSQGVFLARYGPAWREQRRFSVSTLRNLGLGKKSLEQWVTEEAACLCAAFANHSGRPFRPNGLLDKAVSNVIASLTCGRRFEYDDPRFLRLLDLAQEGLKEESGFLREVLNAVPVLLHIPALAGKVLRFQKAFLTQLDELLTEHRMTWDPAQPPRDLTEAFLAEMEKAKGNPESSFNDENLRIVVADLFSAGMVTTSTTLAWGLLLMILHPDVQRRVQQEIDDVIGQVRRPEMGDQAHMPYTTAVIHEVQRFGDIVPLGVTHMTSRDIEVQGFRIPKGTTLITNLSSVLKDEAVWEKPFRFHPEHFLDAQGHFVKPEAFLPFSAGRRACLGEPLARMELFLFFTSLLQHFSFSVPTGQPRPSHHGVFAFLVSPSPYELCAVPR
The conditions of series [4]: rats, sub-chronic dosing (10 and 30 mg/kg qd, i.p.).

The term IC50 denotes the concentration at which inhibition is half-maximal. `COc1cc(Cl)cc(C(C)Nc2cc(N3CCNCC3)ccc2S(C)(=O)=O)c1OC.Cl` (stereo not shown) [Compound A, [1-(5-Chloro-2,3-dimethoxy-phenyl)-ethyl]-(2-methanesulfonyl-5-piperazin-1-yl-phenyl)-amine hydrochloride salt]: the “stability (HLM)” value is more than 90 min. Moreover, the safety margin in series [1] is given as more than 100 fold. Further, in series [2], the body weight result is recorded as “significant reduction” and the food intake entry is listed as “significant reduction”. Besides, the IC50 in series [3] is 7.8 µM. Further, in series [4], the body weight result was “significant reduction” and the food intake entry is “significant reduction”.
